Reference: patent US11717508B2, “Compounds, compositions, and methods for inhibiting bacterial growth” (priority 2016, dated 2023)

Tested on: DosRST regulon
Format: cell-based
Settings: 40 μM, 6 days, >2-fold, p<0.05

C[C@@H]1CC(C)(C)C[C@]2(C1)NC(=O)NC2=O (racemic) [HC102A, 7,7,9-trimethyl-1,3-diazaspiro[4.5]decane-2,4-dione]
genes downregulated by compound that are also downregulated in the CDC1551(ΔdosR) mutant: 48 genes
